This note sets out measurements from patent publication US10508086B2 (CANCER RESEARCH TECHNOLOGY LIMITED, priority 2014, dated 2019).

Human Full Length PARG, sequence (Q86W56 whole entry): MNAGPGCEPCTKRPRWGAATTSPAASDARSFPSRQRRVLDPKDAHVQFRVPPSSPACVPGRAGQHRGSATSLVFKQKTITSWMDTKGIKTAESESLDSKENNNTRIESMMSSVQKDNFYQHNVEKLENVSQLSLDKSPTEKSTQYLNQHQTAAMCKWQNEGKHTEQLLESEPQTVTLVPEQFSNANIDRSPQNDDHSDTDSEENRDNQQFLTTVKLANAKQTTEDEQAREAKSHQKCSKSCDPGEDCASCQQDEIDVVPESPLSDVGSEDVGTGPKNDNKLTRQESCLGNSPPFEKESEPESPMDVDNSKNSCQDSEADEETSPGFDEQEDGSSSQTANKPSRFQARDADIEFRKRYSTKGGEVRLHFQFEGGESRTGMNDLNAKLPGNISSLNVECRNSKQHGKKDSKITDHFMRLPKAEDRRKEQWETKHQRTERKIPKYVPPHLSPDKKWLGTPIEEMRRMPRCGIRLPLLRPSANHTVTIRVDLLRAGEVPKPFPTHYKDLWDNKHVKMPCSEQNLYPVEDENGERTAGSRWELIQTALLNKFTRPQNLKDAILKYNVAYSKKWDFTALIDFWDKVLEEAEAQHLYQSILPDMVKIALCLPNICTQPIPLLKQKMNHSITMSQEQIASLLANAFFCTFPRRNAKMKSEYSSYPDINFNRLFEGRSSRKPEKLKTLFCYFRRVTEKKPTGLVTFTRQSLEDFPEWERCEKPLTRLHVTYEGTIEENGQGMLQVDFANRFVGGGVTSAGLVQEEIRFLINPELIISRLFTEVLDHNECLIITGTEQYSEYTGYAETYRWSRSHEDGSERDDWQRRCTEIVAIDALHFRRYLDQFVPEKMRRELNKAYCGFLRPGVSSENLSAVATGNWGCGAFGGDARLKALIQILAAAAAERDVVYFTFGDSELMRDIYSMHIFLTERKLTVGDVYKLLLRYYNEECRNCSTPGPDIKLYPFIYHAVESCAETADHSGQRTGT

This assay concerns the target Human Full Length PARG (Homo sapiens (Human), UniProt Q86W56). Nature of the assay: PARG in vitro enzyme assay (TR-FRET). Format: biochemical. The conditions noted are these: read-out: PARG_EC50_ENZYME. As to the method: PARG In vitro assays were conducted in a total volume of 15 ul in a standard 384 well format. 5 ul of Human Full Length PARG (Produced internally by Astra Zeneca), used at a final reaction concentration of […], was added to 5 ul of Ribosylated PARP substrate (also produced internally by Astra Zeneca) at final reaction concentration of 4.5 nM in assay buffer (50 mM Tris pH7.4, 0.1 mg/ml BSA, 3 mM EDTA, 0.4 mM EGTA, 1 mM DTT, 0.01% Tween 20, 50 mM KCl). The reaction was incubated at room temperature for 10 minutes and then 5 ul detection reagent was added. Detection Reagent consists of 42 nM MAb Anti-6HIS XL665 (CisBio: 61 HISXLB) and 2.25 nM Streptavidin Europium Cryptate (CisBio: 610SAKLB), both at 3× working stock concentrations (final concentrations of 14 nM and 0.75 nM respectively), in a detection buffer of 50 mM Tris pH7.4, BSA at 0.1 mg/ml and KF at 100 mM. Following incubation at room temperature for 60 minutes in the dark, TR-FRET signal was measured at Ex 340 and Em 665 and Em 620. A ratio was calculated as Em665/EM620×104 for each well and used to calculate percent inhibition for test compounds.
As for `Cc1ccccc1C(=O)n1c(=O)n(C)c2ccc(S(=O)(=O)NC3(C)CC3)cc21` [Example 31], the EC50 was 4.91 µM. As for `CCNC(=O)n1c(=O)n(C)c2ccc(S(=O)(=O)NC3(C)CC3)cc21` [Example 32], the EC50 is 6.86 µM. In the case of `Cc1cccc(Cn2c(=O)n(C)c3cc(S(=O)(=O)NC4(C)CC4)ccc32)c1` [Example 33], the EC50 was 6.31 µM.

`Cc1ccc(Cn2c(=O)n(C)c3cc(S(=O)(=O)NC4(C)CC4)ccc32)cc1` [Example 34]: the EC50 was found to be 6.21 µM.

Take `COc1ccccc1Cn1c(=O)n(C)c2cc(S(=O)(=O)NC3(C)CC3)ccc21` [Example 35]: the EC50 was determined as 7.69 µM. With `COc1cccc(Cn2c(=O)n(C)c3cc(S(=O)(=O)NC4(C)CC4)ccc32)c1` [Example 36], the EC50 was 6.17 µM. With `COc1ccc(Cn2c(=O)n(C)c3cc(S(=O)(=O)NC4(C)CC4)ccc32)cc1` [Example 37], the EC50 was 3.15 µM.

For `Cn1c(=O)n(Cc2cccc(Cl)c2)c2ccc(S(=O)(=O)NC3(C)CC3)cc21` [Example 38], the EC50 was 5.71 µM.

As for `Cn1c(=O)n(Cc2ccc(Cl)cc2)c2ccc(S(=O)(=O)NC3(C)CC3)cc21` [Example 39], the EC50 came out at 3.74 µM.

For the molecule `Cn1c(=O)n(Cc2ccccc2F)c2ccc(S(=O)(=O)NC3(C)CC3)cc21` [Example 40], the EC50 was found to be 6.3 µM. Take `Cn1c(=O)n(Cc2cccc(F)c2)c2ccc(S(=O)(=O)NC3(C)CC3)cc21` [Example 41]: the EC50 was 5.77 µM.

With `Cn1c(=O)n(Cc2ccc(F)cc2)c2ccc(S(=O)(=O)NC3(C)CC3)cc21` [Example 42], the EC50 was determined as 2.35 µM. For `Cn1c(=O)n(Cc2ccccc2C#N)c2ccc(S(=O)(=O)NC3(C)CC3)cc21` [Example 43], the EC50 came to 5.25 µM. With `Cn1c(=O)n(Cc2cccc(C#N)c2)c2ccc(S(=O)(=O)NC3(C)CC3)cc21` [Example 44] the figure was 3.35 µM; with `Cn1c(=O)n(Cc2ccc(C#N)cc2)c2ccc(S(=O)(=O)NC3(C)CC3)cc21` [Example 45], 3.2 µM; with `Cn1c(=O)n(Cc2ccccc2C(F)(F)F)c2ccc(S(=O)(=O)NC3(C)CC3)cc21` [Example 46], 9.75 µM. On to `Cn1c(=O)n(Cc2c(F)cccc2F)c2ccc(S(=O)(=O)NC3(C)CC3)cc21` [Example 47], for which the EC50 was 5.72 µM. As for `Cn1c(=O)n(Cc2cc(Cl)cc(Cl)c2)c2ccc(S(=O)(=O)NC3(C)CC3)cc21` [Example 48], the EC50 is 7.83 µM. Take `Cc1cc(C)cc(Cn2c(=O)n(C)c3cc(S(=O)(=O)NC4(C)CC4)ccc32)c1` [Example 49]: the EC50 stood at 5.07 µM. To `COc1cc(Cn2c(=O)n(C)c3cc(S(=O)(=O)NC4(C)CC4)ccc32)cc(OC)c1` [Example 50] belongs 4.91 µM. Take `Cn1c(=O)n(Cc2cc(F)cc(F)c2)c2ccc(S(=O)(=O)NC3(C)CC3)cc21` [Example 51]: the EC50 turned out to be 5.26 µM. With `Cn1c(=O)n(-c2ccco2)c2cc(S(=O)(=O)NC3(C)CC3)ccc21` [Example 52], the EC50 worked out at 5.16 µM. As for `Cn1c(=O)n(-c2nccs2)c2cc(S(=O)(=O)NC3(C)CC3)ccc21` [Example 53], the EC50 is 2.86 µM.

As to `Cn1c(=O)n(-c2ccc(C=O)s2)c2cc(S(=O)(=O)NC3(C)CC3)ccc21` [Example 54], the EC50 turned out to be 9.07 µM. For `CNC(=O)n1c(=O)n(C)c2ccc(S(=O)(=O)NC3(C)CC3)cc21` [Example 55], the EC50 was determined as 7.05 µM.

For `Cn1c(=O)n(C)c2cc(S(=O)(=O)NC3(C)CC3)c(F)cc21` [Example 56, 6-Fluoro-1,3-dimethyl-N-(1-methylcyclopropyl)-2-oxo-benzimidazole-5-sulfonamide], the EC50 stood at 8.3 µM. For the molecule `Cn1c(=O)n(-c2ccccc2)c2ccc(S(=O)(=O)NC3(C)CC3)cc21` [Example 57], the EC50 is 5.63 µM. For the molecule `Cn1c(=O)n(Cc2ccc(C#N)c(F)c2)c2ccc(S(=O)(=O)NC3(C)CC3)cc21` [Example 58], the EC50 amounted to 4.65 µM.

As for `Cn1c(=O)n(Cc2ccc(C(N)=O)cc2)c2ccc(S(=O)(=O)NC3(C)CC3)cc21` [Example 59], the EC50 was 2.66 µM.

In the case of `CNC(=O)c1noc(Cn2c(=O)n(C)c3cc(S(=O)(=O)NC4(C)CC4)ccc32)n1` [Example 60], the EC50 came to 5.96 µM. Take `Cn1c(=O)n(Cc2cccc(C(N)=O)c2)c2ccc(S(=O)(=O)NC3(C)CC3)cc21` [Example 61]: the EC50 turned out to be 6.06 µM. To `Cn1c(=O)n(Cc2ccc([N+](=O)[O-])o2)c2ccc(S(=O)(=O)NC3(C)CC3)cc21` [Example 62] belongs 5.9 µM; to `CC(=O)Nc1ccc(Cn2c(=O)n(C)c3cc(S(=O)(=O)NC4(C)CC4)ccc32)cc1` [Example 63], 4.17 µM; to `Cn1nccc1Cn1c(=O)n(C)c2cc(S(=O)(=O)NC3(C)CC3)ccc21` [Example 64], 8.5 µM. Take `Cc1ncc(Cn2c(=O)n(C)c3cc(S(=O)(=O)NC4(C)CC4)ccc32)s1` [Example 65]: the EC50 was 9.8 µM.

For the molecule `CCOC(=O)n1c(=O)n(C)c2ccc(S(=O)(=O)NC3(C)CC3)cc21` [Example 66], the EC50 was found to be 1.35 µM. With `Cn1c(=O)n(-c2ccc(/C=C/C(=O)O)o2)c2cc(S(=O)(=O)NC3(C)CC3)ccc21` [Example 67, (E)-3-[5-[3-Methyl-6-[(1-methylcyclopropyl)sulfamoyl]-2-oxo-benzimidazol-1-yl]-2-furyl]prop-2-enoic acid], the EC50 came to 4.45 µM. For `Cc1nnc(-n2c(=O)n(C)c3ccc(S(=O)(=O)NC4(C)CC4)cc32)s1` [Example 68], the EC50 turned out to be 0.902 µM. With `Cn1c(=O)n(-c2ncc(/C=C/C(=O)O)s2)c2cc(S(=O)(=O)NC3(C)CC3)ccc21` [Example 69, (E)-3-[2-[3-methyl-6-[(1-methylcyclopropyl)sulfamoyl]-2-oxo-benzimidazol-1-yl]thiazol-5-yl]prop-2-enoic acid], the EC50 stood at 3.21 µM.

Turning to `Cn1c(=O)n(-c2ncc(CCC(=O)O)s2)c2cc(S(=O)(=O)NC3(C)CC3)ccc21` [Example 70, 3-[2-[3-Methyl-6-[(1-methylcyclopropyl)sulfamoyl]-2-oxo-benzimidazol-1-yl]thiazol-5-yl]propanoic acid], the EC50 stood at 0.804 µM. For the molecule `CN(C)C(=O)CCc1cnc(-n2c(=O)n(C)c3ccc(S(=O)(=O)NC4(C)CC4)cc32)s1` [Example 71, N, N-Dimethyl-3-[2-[3-methyl-6-[(1-methylcyclopropyl)sulfamoyl]-2-oxo-benzimidazol-1-yl]thiazol-5-yl]propanamide], the EC50 amounted to 7.05 µM. `CC1(NS(=O)(=O)c2ccc3c(c2)[nH]c(=O)n3Cc2ccc(F)cc2)CC1` [Example 72, 1-[(4-Fluorophenyl)methyl]-N-(1-methylcyclopropyl)-2-oxo-3H-benzimidazole-5-sulfonamide]: the EC50 was found to be 8.3 µM. Consider `CNC(=O)CCc1cnc(-n2c(=O)n(C)c3ccc(S(=O)(=O)NC4(C)CC4)cc32)s1` [Example 74, N-methyl-3-[2-[3-methyl-6-[(1-methylcyclopropyl)sulfamoyl]-2-oxo-benzimidazol-1-yl]thiazol-5-yl]propanamide], for which the EC50 came to 9.73 µM. Regarding `CCOC(=O)n1c(=O)n(Cc2ccc(F)cc2)c2ccc(S(=O)(=O)NC3(C)CC3)cc21` [Example 75], the EC50 is 0.925 µM.

With `CC1(NS(=O)(=O)c2ccc3c(c2)n(-c2nccs2)c(=O)n3Cc2ccc(F)cc2)CC1` [Example 76], the EC50 came to 2.71 µM.

`Cn1c(=O)n(-c2nncs2)c2cc(S(=O)(=O)NC3(C)CC3)ccc21` [Example 77]: the EC50 is 5 µM. `Cn1c(=O)n(-c2nnc(C(F)(F)F)s2)c2cc(S(=O)(=O)NC3(C)CC3)ccc21` [Example 78]: the EC50 is 0.717 µM. Consider `Cc1nnc(-n2c(=O)[nH]c3ccc(S(=O)(=O)NC4(C)CC4)cc32)s1` [Example 80, N-(1-Methylcyclopropyl)-3-(5-methyl-1,3,4-thiadiazol-2-yl)-2-oxo-1H-benzimidazole-5-sulfonamide], for which the EC50 amounted to 0.732 µM. On to `Cc1nnc(-n2c(=O)n(CCN(C)C)c3ccc(S(=O)(=O)NC4(C)CC4)cc32)s1` [Example 85], for which the EC50 was 0.684 µM. Turning to `Cc1nc(C)c(Cn2c(=O)[nH]c3cc(S(=O)(=O)NC4(C)CC4)ccc32)s1` [Example 89, 1-[(2,4-Dimethylthiazol-5-yl)methyl]-N-(1-methylcyclopropyl)-2-oxo-3H-benzimidazole-5-sulfonamide], the EC50 amounted to 9.27 µM. To `Cc1nc(C)c(Cn2c(=O)n(-c3cnsc3)c3cc(S(=O)(=O)NC4(C)CC4)ccc32)s1` [Example 93] belongs 1.34 µM; to `Cc1nnc(-n2c(=O)[nH]c3ccc(S(=O)(=O)NC4(C)CC4)cc32)o1` [Example 94, N-(1-Methylcyclopropyl)-3-(5-methyl-1,3,4-oxadiazol-2-yl)-2-oxo-1H-benzimidazole-5-sulfonamide], 1.46 µM; to `Cc1nc(C)c(Cn2c(=O)n(-c3cscn3)c3cc(S(=O)(=O)NC4(C)CC4)ccc32)s1` [Example 95], 0.74 µM.

Turning to `Cc1nc(C)c(Cn2c(=O)n(-c3ccn(C)n3)c3cc(S(=O)(=O)NC4(C)CC4)ccc32)s1` [Example 96], the EC50 was determined as 7.03 µM. Turning to `Cc1nc(C)c(Cn2c(=O)n(-c3cncs3)c3cc(S(=O)(=O)NC4(C)CC4)ccc32)s1` [Example 97], the EC50 turned out to be 0.816 µM. As for `Cc1csc(-n2c(=O)n(Cc3sc(C)nc3C)c3ccc(S(=O)(=O)NC4(C)CC4)cc32)n1` [Example 106], the EC50 was 1.52 µM.
